Test results published in ChEMBL document CHEMBL1909046, “DrugMatrix in vitro pharmacology data”.

What was measured:
[1] = biological target: Tyrosine-protein kinase Lck (Homo sapiens, UniProt P06239); experiment: DRUGMATRIX: Protein Tyrosine Kinase, LCK enzyme inhibition (substrate: Poly(Glu:Tyr)); assay type: cell-based, Insect cells; details: insect cells; Not Active = under 50% inhibition at 10 µM
[2] = biological target: 5-hydroxytryptamine receptor 2B (Homo sapiens, UniProt P41595); assay type: cell membranes, CHO-K1, Membrane; details: for Ki: read-out: Ki; for all read-outs here: in other assays of this panel Not Active means under 50% inhibition at 10 µM
[3] = DRUGMATRIX: Glutamate, AMPA radioligand binding (ligand: [3H] AMPA); assay type: cell membranes, Rattus norvegicus, Wistar, Cerebral cortex, Membrane; details: Not Active = under 50% inhibition at 10 µM
[4] = biological target: T1, Cysteinyl leukotriene receptor 1 (Homo sapiens, UniProt Q9Y271); assay type: cell membranes, CHO-K1, Membrane; details: cho-k1; note: in other assays of this panel Not Active means under 50% inhibition at 10 µM
T1 sequence (Q9Y271 whole entry): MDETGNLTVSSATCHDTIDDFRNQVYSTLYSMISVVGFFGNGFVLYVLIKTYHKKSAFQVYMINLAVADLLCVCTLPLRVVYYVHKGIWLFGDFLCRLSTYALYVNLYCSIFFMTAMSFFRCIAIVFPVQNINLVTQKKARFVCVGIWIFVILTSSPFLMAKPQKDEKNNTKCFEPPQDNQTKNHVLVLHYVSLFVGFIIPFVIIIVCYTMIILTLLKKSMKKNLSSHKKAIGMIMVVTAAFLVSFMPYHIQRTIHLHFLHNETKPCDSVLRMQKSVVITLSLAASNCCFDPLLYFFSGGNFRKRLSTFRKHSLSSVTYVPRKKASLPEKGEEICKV

Calcitonin receptor = biological target: T2, Calcitonin receptor (Homo sapiens, UniProt P30988); assay type: cell membranes, Membrane; details: t47d; note: in other assays of this panel Not Active means under 50% inhibition at 10 µM
T2 sequence (P30988 whole entry): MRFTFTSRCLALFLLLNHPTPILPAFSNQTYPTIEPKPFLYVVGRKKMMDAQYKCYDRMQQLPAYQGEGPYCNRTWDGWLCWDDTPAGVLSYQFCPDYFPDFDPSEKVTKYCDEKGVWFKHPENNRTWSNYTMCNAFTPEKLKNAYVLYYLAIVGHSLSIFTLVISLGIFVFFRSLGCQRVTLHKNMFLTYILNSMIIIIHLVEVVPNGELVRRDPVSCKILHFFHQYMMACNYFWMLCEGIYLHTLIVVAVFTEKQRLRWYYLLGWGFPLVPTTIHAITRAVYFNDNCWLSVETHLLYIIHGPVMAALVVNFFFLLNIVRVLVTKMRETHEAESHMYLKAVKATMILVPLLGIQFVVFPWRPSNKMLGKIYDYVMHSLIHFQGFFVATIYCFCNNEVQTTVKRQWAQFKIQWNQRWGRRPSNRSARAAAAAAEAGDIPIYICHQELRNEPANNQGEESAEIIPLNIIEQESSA

[5] = DRUGMATRIX: Glutamate, NMDA, Agonism radioligand binding (ligand: [3H] CGP-39653); assay type: cell membranes, Rattus norvegicus, Wistar, Cerebral cortex, Membrane; details: Not Active = under 50% inhibition at 10 µM
Cytochrome P450 2E1 = Cytochrome P450 2E1 (Homo sapiens, UniProt P05181); details: bti-tn-5b1-4; note: in other assays of this panel Not Active means under 50% inhibition at 10 µM
Substance-K receptor = biological target: T3, Substance-K receptor (Homo sapiens, UniProt P21452); assay type: cell membranes, CHO, Membrane; details: cho; note: in other assays of this panel Not Active means under 50% inhibition at 10 µM
T3 sequence (P21452 whole entry): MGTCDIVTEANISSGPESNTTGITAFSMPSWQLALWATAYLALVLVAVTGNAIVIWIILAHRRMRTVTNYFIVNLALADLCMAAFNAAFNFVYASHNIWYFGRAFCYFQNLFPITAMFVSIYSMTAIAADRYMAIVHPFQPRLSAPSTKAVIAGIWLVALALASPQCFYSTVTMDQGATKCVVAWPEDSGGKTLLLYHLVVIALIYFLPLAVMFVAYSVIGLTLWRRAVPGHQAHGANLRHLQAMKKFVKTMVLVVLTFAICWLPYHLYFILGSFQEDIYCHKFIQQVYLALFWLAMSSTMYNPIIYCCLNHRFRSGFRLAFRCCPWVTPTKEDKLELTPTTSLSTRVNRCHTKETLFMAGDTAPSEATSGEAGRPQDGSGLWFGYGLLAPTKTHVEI

[6] = DRUGMATRIX: Atrial Natriuretic Factor (ANF) radioligand binding (ligand: [125I] ANF (rat)); assay type: cell membranes, Cavia porcellus, Dunkin-Hartley, Adrenal gland, Membrane; details: Not Active = under 50% inhibition at 10 µM
[7] = biological target: T4, C-X-C chemokine receptor type 1 (Homo sapiens, UniProt P25024); note: in other assays of this panel Not Active means under 50% inhibition at 10 µM
T4 sequence (P25024 whole entry): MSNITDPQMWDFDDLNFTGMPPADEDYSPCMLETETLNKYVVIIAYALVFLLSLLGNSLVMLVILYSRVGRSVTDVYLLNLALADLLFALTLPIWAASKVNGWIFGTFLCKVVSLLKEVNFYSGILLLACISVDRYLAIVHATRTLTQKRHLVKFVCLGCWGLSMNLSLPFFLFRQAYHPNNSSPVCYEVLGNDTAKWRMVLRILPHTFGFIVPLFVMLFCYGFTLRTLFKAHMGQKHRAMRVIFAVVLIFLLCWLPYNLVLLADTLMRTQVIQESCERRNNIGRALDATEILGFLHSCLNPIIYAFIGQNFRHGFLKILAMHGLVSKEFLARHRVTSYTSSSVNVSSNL

Carbonic anhydrase 2 = Carbonic anhydrase 2 (Homo sapiens, UniProt P00918); experiment: DRUGMATRIX: Carbonic Anhydrase II enzyme inhibition (substrate: 4-Nitrophenyl acetate (4-NPA)); assay type: tissue-based, Erythrocyte; details: erythrocyte; Not Active = under 50% inhibition at 10 µM
Neutrophil elastase = biological target: T5, Neutrophil elastase (Homo sapiens, UniProt P08246); assay type: tissue-based
T5 sequence (P08246 whole entry): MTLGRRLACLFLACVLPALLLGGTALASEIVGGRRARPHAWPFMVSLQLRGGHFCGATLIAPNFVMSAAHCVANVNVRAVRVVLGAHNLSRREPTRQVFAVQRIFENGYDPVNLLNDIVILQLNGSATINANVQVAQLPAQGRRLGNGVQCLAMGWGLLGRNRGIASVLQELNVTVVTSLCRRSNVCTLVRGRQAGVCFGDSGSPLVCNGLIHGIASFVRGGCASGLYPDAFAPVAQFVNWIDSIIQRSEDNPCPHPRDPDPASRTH

[8] = biological target: Tyrosine-protein kinase Fyn (Homo sapiens, UniProt P06241); experiment: biochemical; assay type: cell-based, Insect cells; details: insect cells
Substance-P receptor = Substance-P receptor (Homo sapiens, UniProt P25103); assay type: cell membranes, CHO, Membrane; details: cho; note: in other assays of this panel Not Active means under 50% inhibition at 10 µM
[9] = DRUGMATRIX: Glutamate, NMDA, Phencyclidine radioligand binding (ligand: [3H] TCP); assay type: cell membranes, Rattus norvegicus, Wistar, Cerebral cortex, Membrane; details: Not Active = under 50% inhibition at 10 µM

Sequence of Tyrosine-protein kinase Fyn (P06241 whole entry): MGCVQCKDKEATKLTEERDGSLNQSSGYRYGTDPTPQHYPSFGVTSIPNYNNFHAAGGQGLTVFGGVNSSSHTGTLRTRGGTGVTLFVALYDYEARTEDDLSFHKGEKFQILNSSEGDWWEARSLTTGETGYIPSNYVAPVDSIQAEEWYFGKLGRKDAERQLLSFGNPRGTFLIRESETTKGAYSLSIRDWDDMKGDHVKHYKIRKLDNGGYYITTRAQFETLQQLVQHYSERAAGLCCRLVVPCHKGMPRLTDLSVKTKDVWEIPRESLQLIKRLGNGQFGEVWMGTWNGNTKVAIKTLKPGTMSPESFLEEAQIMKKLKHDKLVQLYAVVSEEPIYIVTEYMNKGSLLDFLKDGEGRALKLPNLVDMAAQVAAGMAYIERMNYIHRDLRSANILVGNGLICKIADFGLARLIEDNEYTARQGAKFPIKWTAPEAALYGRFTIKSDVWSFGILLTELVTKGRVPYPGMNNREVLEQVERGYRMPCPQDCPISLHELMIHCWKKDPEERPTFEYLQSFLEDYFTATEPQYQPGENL
Sequence of 5-hydroxytryptamine receptor 2B (P41595 whole entry): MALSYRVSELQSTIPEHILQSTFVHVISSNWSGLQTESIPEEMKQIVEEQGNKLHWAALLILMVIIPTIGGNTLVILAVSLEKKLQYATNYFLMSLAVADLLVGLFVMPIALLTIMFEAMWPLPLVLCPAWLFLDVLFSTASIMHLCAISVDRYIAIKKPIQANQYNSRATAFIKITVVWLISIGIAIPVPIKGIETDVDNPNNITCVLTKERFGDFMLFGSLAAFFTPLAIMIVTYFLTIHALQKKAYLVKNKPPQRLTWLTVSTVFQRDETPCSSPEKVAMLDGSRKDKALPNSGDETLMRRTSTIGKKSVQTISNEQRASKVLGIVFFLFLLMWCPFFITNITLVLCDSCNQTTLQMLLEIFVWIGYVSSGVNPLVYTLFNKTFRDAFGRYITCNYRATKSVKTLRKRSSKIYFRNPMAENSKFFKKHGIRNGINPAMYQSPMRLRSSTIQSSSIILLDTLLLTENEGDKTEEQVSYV
Sequence of Tyrosine-protein kinase Lck (P06239 whole entry): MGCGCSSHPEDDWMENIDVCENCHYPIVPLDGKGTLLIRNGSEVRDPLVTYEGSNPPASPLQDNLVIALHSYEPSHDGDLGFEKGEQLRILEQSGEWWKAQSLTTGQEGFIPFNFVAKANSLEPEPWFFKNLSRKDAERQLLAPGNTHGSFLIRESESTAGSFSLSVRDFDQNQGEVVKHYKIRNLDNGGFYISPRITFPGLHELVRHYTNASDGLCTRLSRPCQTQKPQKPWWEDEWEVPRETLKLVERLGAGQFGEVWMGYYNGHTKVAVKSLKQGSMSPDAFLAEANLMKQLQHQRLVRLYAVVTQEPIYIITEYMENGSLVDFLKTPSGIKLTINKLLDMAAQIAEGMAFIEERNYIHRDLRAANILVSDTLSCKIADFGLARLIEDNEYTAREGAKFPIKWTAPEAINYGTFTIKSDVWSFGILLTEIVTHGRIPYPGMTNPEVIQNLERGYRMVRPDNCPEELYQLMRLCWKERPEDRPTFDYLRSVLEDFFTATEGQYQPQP
Sequence of Substance-P receptor (P25103 whole entry): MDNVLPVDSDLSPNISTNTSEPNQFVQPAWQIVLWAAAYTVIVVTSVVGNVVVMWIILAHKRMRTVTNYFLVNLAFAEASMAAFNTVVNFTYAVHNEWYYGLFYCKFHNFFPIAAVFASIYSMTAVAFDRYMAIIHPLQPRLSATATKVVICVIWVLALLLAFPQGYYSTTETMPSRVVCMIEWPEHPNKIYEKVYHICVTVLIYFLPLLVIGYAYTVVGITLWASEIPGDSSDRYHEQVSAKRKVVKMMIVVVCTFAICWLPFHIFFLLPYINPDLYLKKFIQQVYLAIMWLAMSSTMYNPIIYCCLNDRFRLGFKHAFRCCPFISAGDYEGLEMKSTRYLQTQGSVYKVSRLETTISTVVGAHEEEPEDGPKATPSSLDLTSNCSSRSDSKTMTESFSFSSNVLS
Sequence of Cytochrome P450 2E1 (P05181 whole entry): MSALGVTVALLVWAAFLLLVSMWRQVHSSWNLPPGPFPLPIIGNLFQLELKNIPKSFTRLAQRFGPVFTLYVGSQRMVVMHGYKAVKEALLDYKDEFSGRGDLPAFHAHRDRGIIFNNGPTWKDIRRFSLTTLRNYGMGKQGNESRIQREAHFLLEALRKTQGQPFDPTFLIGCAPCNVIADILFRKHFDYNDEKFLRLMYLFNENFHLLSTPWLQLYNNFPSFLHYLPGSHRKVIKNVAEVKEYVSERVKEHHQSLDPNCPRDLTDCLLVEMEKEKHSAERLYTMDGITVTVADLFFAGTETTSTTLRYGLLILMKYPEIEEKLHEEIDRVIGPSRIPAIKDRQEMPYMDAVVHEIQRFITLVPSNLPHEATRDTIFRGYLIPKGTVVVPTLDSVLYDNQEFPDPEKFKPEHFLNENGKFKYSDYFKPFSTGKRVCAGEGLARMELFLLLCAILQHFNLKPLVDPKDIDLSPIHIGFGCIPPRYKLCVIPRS

Structure (SMILES)	IC50 [1]	IC50 ([2]; cho-k1)	IC50 [3]	Ki [3]	IC50 [4]	IC50 (Calcitonin receptor)	IC50 [5]	Ki [5]	IC50 (Cytochrome P450 2E1)	Ki (Cytochrome P450 2E1)	IC50 (Substance-K receptor)	IC50 [6]	Ki [6]	IC50 [7]	IC50 (Carbonic anhydrase 2)	IC50 (Neutrophil elastase)	IC50 [8]	IC50 (Substance-P receptor)	IC50 [9]	Ki [9]	further results
CCOC(=O)[C@H](CCc1ccccc1)N[C@@H](C)C(=O)N1[C@H](C(=O)O)C[C@@H]2CCC[C@@H]21	Not Active	Not Active	Not Active	Not Active	Not Active	Not Active	Not Active	Not Active	Not Active	Not Active	Not Active	Not Active	Not Active	Not Active	Not Active	Not Active	Not Active	Not Active	Not Active	Not Active	
Clc1ccc(C(c2ccccc2Cl)C(Cl)Cl)cc1 (configuration not stated) [MITOTANE]	Not Active		Not Active	Not Active	Not Active	Not Active	Not Active	Not Active	Not Active	Not Active	Not Active	Not Active	Not Active	Not Active	Not Active	Not Active	Not Active	Not Active	Not Active	Not Active	IC50 ([2]; read-out: IC50): 4.83 µM; Ki [2]: 3.08 µM
CN(C)[C@@H]1C(O)=C(C(N)=O)C(=O)[C@@]2(O)C(O)=C3C(=O)c4c(O)cccc4[C@@](C)(O)[C@H]3C[C@@H]12 [TETRACYCLINE]	Not Active	Not Active	Not Active	Not Active	Not Active	Not Active	Not Active	Not Active	Not Active	Not Active	Not Active	Not Active	Not Active	Not Active	Not Active	Not Active	Not Active	Not Active	Not Active	Not Active	
CC(C)(C)NCC(O)c1ccc(O)c(CO)c1 (configuration not stated) [ALBUTEROL]	Not Active	Not Active	Not Active	Not Active	Not Active	Not Active	Not Active	Not Active	Not Active	Not Active	Not Active	Not Active	Not Active	Not Active	Not Active	Not Active	Not Active	Not Active	Not Active	Not Active	
CC(CCc1ccccc1)NCC(O)c1ccc(O)c(C(N)=O)c1 (configuration not stated) [LABETALOL]	Not Active		Not Active	Not Active	Not Active	Not Active	Not Active	Not Active	Not Active	Not Active	Not Active	Not Active	Not Active	Not Active	Not Active	Not Active	Not Active	Not Active	Not Active	Not Active	IC50 ([2]; read-out: IC50): 3.04 µM; Ki [2]: 1.93 µM
CN(N=O)C(=O)N[C@@H](C=O)[C@@H](O)[C@H](O)[C@H](O)CO [STREPTOZOCIN]	Not Active	Not Active	Not Active	Not Active	Not Active	Not Active	Not Active	Not Active	Not Active	Not Active	Not Active	Not Active	Not Active	Not Active	Not Active	Not Active	Not Active	Not Active	Not Active	Not Active	
Nc1nnc(-c2cccc(Cl)c2Cl)c(N)n1 [LAMOTRIGINE]	Not Active	Not Active	Not Active	Not Active	Not Active	Not Active	Not Active	Not Active	Not Active	Not Active	Not Active	Not Active	Not Active	Not Active	Not Active	Not Active	Not Active	Not Active	Not Active	Not Active	
CC(C)(C)NCC(O)c1cc(O)cc(O)c1 (configuration not stated) [TERBUTALINE]	Not Active	Not Active	Not Active	Not Active	Not Active	Not Active	Not Active	Not Active	Not Active	Not Active	Not Active	Not Active	Not Active	Not Active	Not Active	Not Active	Not Active	Not Active	Not Active	Not Active	
